Values after ≈ are worked out from the molar mass of the structure shown. Values joined by “and” are separate entries in the source; they are usually repeats but may differ in a detail not shown here. Equal entries are not always repeated. Where two headings read alike, the source gives them in different places. Marks after values point to notes of the source that are not given here.
Tests used:
biothreat pathogens = type: cell-based
[1] = tested on: Pseudomonas aeruginosa ATCC 27853; assay: microbe, parasite or virus in culture; type: cell-based
[2] = mouse, in vivo
[3] = tested on: Escherichia coli, Klebsiella pneumoniae, and Pseudomonas aeruginosa; details: cited from earlier work
[4] = mouse, in vivo; remark: listed apart in the source
[5] = tested on: B. pseudomallei strain K96243; parameters: species or system Burkholderia pseudomallei; details: in vivo
[6] = tested on: Staphylococcus aureus ATCC 29213; assay: microbe, parasite or virus in culture; type: cell-based
[7] = tested on: Escherichia coli ATCC 25922; assay: microbe, parasite or virus in culture; type: cell-based
[8] = tested on: Burkholderia pseudomallei; assay: microbe, parasite or virus in culture; type: cell-based

SMILES: C[C@@](O)(C(F)F)[C@H](NC(=O)c1ccc(C#CC#CC2CC2)cc1)C(=O)NO [LPC-233]
- MIC90 values for biothreat pathogens, folds lower than previous compounds such as ACHN-975 (biothreat pathogens): 4–8 folds
- MIC [1]: 0.25 µg/mL (≈ 0.664 µM)
- Clearance [2]: 14.7 mL/min/kg
- period plasma concentration remained above MIC90 [2]: ≥ 24 h
- AUCELF (0–48 h) ([2]; 100 mg/kg): 334.6 µg·h/mL
- AUCplasma (0–48 h) ([2]; 100 mg/kg): 398.6 µg·h/mL
- ELF penetration (AUCELF/AUCplasma, 0–48 h) ([2]; 100 mg/kg): 83.9%
- predicted MIC shift based on plasma protein unbound fraction [3]: ~ 30 fold
- shift of MIC values in the presence of 50% mouse plasma [3]: 4–9 fold
- concentration of the drug in ELF samples ([4]; 30 mg/kg): 100 to 400 ng/mL
- increase in AUC, 100 mg/kg IP compared to oral 100 mg/kg ([4]; 100 mg/kg): 2 fold
- increase in Cmax, 100 mg/kg IP compared to oral 100 mg/kg ([4]; 100 mg/kg): 2 fold
- Inf fT > MIC (free time above MIC) ([4]; ip, 100 mg/kg): ≥6 h
- Inf fT > MIC (free time above MIC) ([4]; po, 10 mg/kg): ≥6 h
- Inf fT > MIC (free time above MIC) ([4]; po, 30 mg/kg): ≥6 h
- Inf fT > MIC (free time above MIC) ([4]; po, 100 mg/kg): ≥6 h
- P, rescue of mice from infection in comparison with the vehicle [5]: < 0.0001
- average body weight after recovery [5]: maintained a steady average weight to the end of the study
- bacterial burden in the lungs at study termination compared to ceftazidime-treated animals [5]: reduction of CFUs in the lungs
- day average body weight declined again [5]: 15 days and 25 days
- day mean body weight began to recover (turning point) [5]: 4 days and 2 days
- final survival rate at the end of the observation period [5]: 60% and 80% and 90%
- median time to death [5]: 6.3 days
- recovery of average body weight [5]: did not recover
- survival [5]: did not support survival
- survival during the treatment phase [5]: 100%
- P range, survival/times to death versus the ceftazidime group ([5]; 30 mg/kg): 0.001–0.05
- time following the last dose without deaths ([5]; 30 mg/kg): 15 days
- Survival log-rank (Mantel–Cox) test P ([5]; 90 mg/kg): 0.5
- Survival log-rank (Mantel–Cox) test P ([5]; ip, 90 mg/kg): <0.0001^a and 0.009^a
- Survival log-rank (Mantel–Cox) test P ([5]; po, 10 mg/kg): <0.0001^a and 0.008^a
- Survival log-rank (Mantel–Cox) test P ([5]; po, 30 mg/kg): <0.0001^a and 0.05^a
- Survival log-rank (Mantel–Cox) test P ([5]; po, 90 mg/kg): <0.0001^a and 0.001^a
- MIC [6]: >16 µg/mL
- MIC [7]: ≤0.008 µg/mL

SMILES: CC(C)(O/N=C(\C(=O)N[C@@H]1C(=O)N2C(C(=O)[O-])=C(C[n+]3ccccc3)CS[C@H]12)c1csc(N)n1)C(=O)O [Ceftazidime, ceftazidime, reference compound]
- MIC ([1]; Pseudomonas aeruginosa, ATCC27853): 1 µg/mL (≈ 1.83 µM)
- MIC50 [8]: 2 µg/mL (≈ 3.66 µM)
- MIC90 [8]: 8 µg/mL (≈ 14.6 µM)
- MIC ([8]; NCTC4845): 2 µg/mL (≈ 3.66 µM)
- Survival log-rank (Mantel–Cox) test P [5]: <0.0001^a
- day average body weight started to decline again [5]: 11 days
- day mean body weight began to recover [5]: > 5 days
- survival at the end of the 29-day observation phase [5]: 20%
- survival during the treatment phase [5]: 70%
- MIC ([6]; Staphylococcus aureus, ATCC29213): 8 µg/mL (≈ 14.6 µM)
- MIC ([7]; Escherichia coli, ATCC25922): 0.12 µg/mL (≈ 0.22 µM)
